Data from ChEMBL document CHEMBL3785006, “Discovery of 2-Indole-acylsulfonamide Myeloid Cell Leukemia 1 (Mcl-1) Inhibitors Using Fragment-Based Methods” (J Med Chem, 2016).

Assays:
[1] = target: T1, Induced myeloid leukemia cell differentiation protein Mcl-1 (Homo sapiens, UniProt Q07820)
[2] = target: T1, Induced myeloid leukemia cell differentiation protein Mcl-1; remark: listed apart in the source
[3] = target: T1, Induced myeloid leukemia cell differentiation protein Mcl-1; remark: listed apart in the source
Bcl-2-like protein 1 = Bcl-2-like protein 1 (Homo sapiens, UniProt Q07817)
Chain of Bcl-2-like protein 1 (Q07817 whole entry): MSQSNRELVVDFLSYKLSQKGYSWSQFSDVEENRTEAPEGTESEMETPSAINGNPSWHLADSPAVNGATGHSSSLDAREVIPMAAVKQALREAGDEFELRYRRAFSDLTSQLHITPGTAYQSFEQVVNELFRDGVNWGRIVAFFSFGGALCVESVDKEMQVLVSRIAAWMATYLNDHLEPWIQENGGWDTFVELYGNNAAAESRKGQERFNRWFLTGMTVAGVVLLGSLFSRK

T1 sequence (Q07820 whole entry): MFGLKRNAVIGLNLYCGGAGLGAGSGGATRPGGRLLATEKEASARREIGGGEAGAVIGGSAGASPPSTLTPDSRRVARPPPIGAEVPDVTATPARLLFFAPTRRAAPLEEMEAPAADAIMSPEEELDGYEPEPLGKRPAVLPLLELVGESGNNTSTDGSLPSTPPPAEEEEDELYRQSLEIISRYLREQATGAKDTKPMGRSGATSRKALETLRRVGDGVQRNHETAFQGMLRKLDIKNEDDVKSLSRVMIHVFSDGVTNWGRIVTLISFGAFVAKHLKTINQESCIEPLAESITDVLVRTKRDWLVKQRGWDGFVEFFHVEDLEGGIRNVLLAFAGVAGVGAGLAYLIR

Ki [1]	Compound	further results
139 nM	Cc1cc(OCCCc2c(C(=O)NS(=O)(=O)CCNC(=O)c3cccn3-c3ccccc3)[nH]c3ccccc23)cc(C)c1Cl	–
< 10 nM	Cc1cc(OCCCc2c(C(=O)NS(=O)(=O)c3ccccc3)[nH]c3c(-c4c(C)n[nH]c4C)c(Cl)ccc23)cc(C)c1Cl	Ki [2]: 147 nM
< 10 nM	Cc1cc(OCCCc2c(C(=O)NS(=O)(=O)c3ccnc(NCCC(C)C)c3)[nH]c3c(-c4c(C)nn(C)c4C)c(Cl)ccc23)cc(C)c1Cl	Ki [3]: 5.6 nM; Ki (Bcl-2-like protein 1): 4470 nM; Ki [2]: 179 nM
1020 nM	Cc1cc(OCCCc2c(C(=O)NS(=O)(=O)CCCNC3CCCCC3)[nH]c3ccccc23)cc(C)c1Cl	–
< 10 nM	Cc1cc(OCCCc2c(C(=O)NS(=O)(=O)c3cccc(CNC(=O)CC(C)C)c3)[nH]c3c(-c4c(C)nn(C)c4C)c(Cl)ccc23)cc(C)c1Cl	Ki [3]: 5.6 nM; Ki (Bcl-2-like protein 1): 1570 nM; Ki [2]: 92 nM
432 nM	Cc1cc(OCCCc2c(C(=O)NS(=O)(=O)CCNC(=O)c3cn(C)c4ccccc34)[nH]c3ccccc23)cc(C)c1Cl	–
251 nM	Cc1cc(OCCCc2c(C(=O)NS(=O)(=O)CCNS(=O)(=O)C3CCCCC3)[nH]c3ccccc23)cc(C)c1Cl	–
55 nM	Cc1cc(OCCCc2c(C(=O)NS(=O)(=O)CCNC(=O)C3CCCCC3)[nH]c3cc(Cl)ccc23)cc(C)c1Cl	–
18 nM	Cc1cc(OCCCc2c(C(=O)NS(=O)(=O)CCNC(=O)c3ccccc3C(F)(F)F)[nH]c3cc(Cl)ccc23)cc(C)c1Cl	–
374 nM	O=C(NS(=O)(=O)CCNC(=O)C1CCCCC1)c1[nH]c2cc(Cl)ccc2c1CCCOc1cccc2ccccc12	–
1100 nM	Cc1cc(OCCCc2c(C(=O)NS(=O)(=O)CCNC(=O)CC3CCCCC3)[nH]c3ccccc23)cc(C)c1Cl	–
14 nM	Cc1cc(OCCCc2c(C(=O)NS(=O)(=O)c3ccccc3)[nH]c3c(-c4cccnc4C)cccc23)cc(C)c1Cl	–
430 nM	Cc1cc(OCCCc2c(C(=O)NS(=O)(=O)CCNC(=O)c3ccccc3)[nH]c3ccccc23)cc(C)c1Cl	–
53 nM	Cc1cc(OCCCc2c(C(=O)NS(=O)(=O)CCNC(=O)c3ccco3)[nH]c3cc(Cl)ccc23)cc(C)c1Cl	–
119 nM	Cc1cc(OCCCc2c(C(=O)NS(=O)(=O)CCNC(=O)c3ccc(C(F)(F)F)cc3)[nH]c3cc(Cl)ccc23)cc(C)c1Cl	–
782 nM	Cc1cc(OCCCc2c(C(=O)NS(=O)(=O)CCNC(=O)c3ccc[nH]3)[nH]c3cc(Cl)ccc23)cc(C)c1Cl	–
202 nM	Cc1cc(OCCCc2c(C(=O)NS(=O)(=O)c3ccccc3)[nH]c3c(-c4cccnc4)cccc23)cc(C)c1Cl	–
< 10 nM	Cc1cc(OCCCc2c(C(=O)NS(=O)(=O)c3ccccc3)[nH]c3c(-c4c(C)n[nH]c4C)cccc23)cc(C)c1Cl	Ki [2]: 517 nM
209 nM	Cc1cc(OCCCc2c(C(=O)NS(C)(=O)=O)[nH]c3cc(Cl)ccc23)cc(C)c1Cl	–
656 nM	CC(=O)NCCS(=O)(=O)NC(=O)c1[nH]c2ccccc2c1CCCOc1cc(C)c(Cl)c(C)c1	–
28 nM	Cc1cc(OCCCc2c(C(=O)NS(=O)(=O)CCNC(=O)[C@H]3Cc4ccccc4N3)[nH]c3cc(Cl)ccc23)cc(C)c1Cl	–
322 nM	Cc1cc(OCCCc2c(C(=O)NS(=O)(=O)CCOc3ccccc3)[nH]c3ccccc23)cc(C)c1Cl	–
308 nM	Cc1cc(OCCCc2c(C(=O)NS(=O)(=O)CCNC(=O)c3cc(-c4ccccc4O)n[nH]3)[nH]c3cc(Cl)ccc23)cc(C)c1Cl	–
< 10 nM	Cc1cc(OCCCc2c(C(=O)NS(=O)(=O)c3ccccc3)[nH]c3c(-c4cccnc4C)c(Cl)ccc23)cc(C)c1Cl	Ki [3]: 18 nM; Ki [2]: 146 nM
193 nM	Cc1cc(OCCCc2c(C(=O)NS(=O)(=O)CCNC(=O)[C@@H]3Cc4ccccc4N3)[nH]c3ccccc23)cc(C)c1Cl	–
336 nM	Cc1cc(OCCCc2c(C(=O)NS(=O)(=O)CCNC(=O)c3ccccc3F)[nH]c3ccccc23)cc(C)c1Cl	–

Ki [1]	Compound	further results
90 nM	Cc1cc(OCCCc2c(C(=O)NS(=O)(=O)CCNC(=O)c3cccn3C)[nH]c3ccccc23)cc(C)c1Cl	–
311 nM	Cc1cc(OCCCc2c(C(=O)NS(=O)(=O)CCNC(=O)c3cc4ccccc4o3)[nH]c3ccccc23)cc(C)c1Cl	–
209 nM	CC(=O)NCCS(=O)(=O)NC(=O)c1[nH]c2cc(Cl)ccc2c1CCCOc1cc(C)c(Cl)c(C)c1	–
87 nM	CCC(=O)NCCS(=O)(=O)NC(=O)c1[nH]c2cc(Cl)ccc2c1CCCOc1cc(C)c(Cl)c(C)c1	–
655 nM	Cc1cc(OCCCc2c(C(=O)NS(C)(=O)=O)[nH]c3ccccc23)cc(C)c1Cl	–
100 nM	Cc1cc(OCCCc2c(C(=O)NS(=O)(=O)CCNC(=O)c3cccc(F)c3)[nH]c3ccccc23)cc(C)c1Cl	–
278 nM	Cc1cc(OCCCc2c(C(=O)NS(=O)(=O)CCNC(=O)c3ccc4cc[nH]c4c3)[nH]c3ccccc23)cc(C)c1Cl	–
231 nM	CS(=O)(=O)NC(=O)c1[nH]c2cc(Cl)ccc2c1CCCOc1cccc2ccccc12	–
91 nM	Cc1cc(OCCCc2c(C(=O)NS(=O)(=O)c3ccccc3)[nH]c3cc(Cl)ccc23)cc(C)c1Cl	–
116 nM	Cc1cc(OCCCc2c(C(=O)NS(=O)(=O)c3ccco3)[nH]c3cc(Cl)ccc23)cc(C)c1Cl	–
36 nM	Cc1ccncc1-c1cccc2c(CCCOc3cc(C)c(Cl)c(C)c3)c(C(=O)NS(=O)(=O)c3ccccc3)[nH]c12	–
19 nM	Cc1cc(OCCCc2c(C(=O)NS(=O)(=O)CCNC(=O)c3ccoc3)[nH]c3cc(Cl)ccc23)cc(C)c1Cl	–
298 nM	Cc1cc(OCCCc2c(C(=O)NS(=O)(=O)CCNC(=O)Cc3cn(C)c4ccccc34)[nH]c3ccccc23)cc(C)c1Cl	–
269 nM	Cc1cc(OCCCc2c(C(=O)NS(=O)(=O)CCNC(=O)c3ccc4[nH]ccc4c3)[nH]c3ccccc23)cc(C)c1Cl	–
66 nM	Cc1cc(OCCCc2c(C(=O)NS(=O)(=O)CCNC(=O)C(C)C)[nH]c3cc(Cl)ccc23)cc(C)c1Cl	–
–	Cc1cc(OCCCc2c(C(=O)NS(=O)(=O)c3ccc(C(=O)O)o3)[nH]c3c(-c4c(C)nn(C)c4C)c(Cl)ccc23)cc(C)c1Cl	IC50 [3]: 2.1 nM; Ki [3]: 0.78 nM
335 nM	Cc1cc(OCCCc2c(C(=O)NS(=O)(=O)c3ccncc3)[nH]c3ccccc23)cc(C)c1Cl	–
10 nM	Cc1cc(OCCCc2c(C(=O)NS(=O)(=O)CCNC(=O)CC(C)C)[nH]c3cc(Cl)ccc23)cc(C)c1Cl	–
79 nM	Cc1cc(OCCCc2c(C(=O)NS(=O)(=O)CCNC(=O)c3cccc(C(F)(F)F)c3)[nH]c3cc(Cl)ccc23)cc(C)c1Cl	–
< 10 nM	Cc1cc(OCCCc2c(C(=O)NS(=O)(=O)c3ccccc3)[nH]c3c(-c4c(C)nn(C)c4C)c(Cl)ccc23)cc(C)c1Cl	Ki [3]: 17 nM; Ki [2]: 64 nM
118 nM	Cc1cc(OCCCc2c(C(=O)NS(=O)(=O)CCNC(=O)C3CCCCC3)[nH]c3ccccc23)cc(C)c1Cl	–
117 nM	Cc1cc(OCCCc2c(C(=O)NS(=O)(=O)CCNC(=O)c3ccc(F)cc3)[nH]c3ccccc23)cc(C)c1Cl	–
148 nM	Cc1cc(OCCCc2c(C(=O)NS(=O)(=O)CCNC(=O)c3cccn3Cc3ccccc3)[nH]c3ccccc23)cc(C)c1Cl	–
16 nM	CCC(CC)C(=O)NCCS(=O)(=O)NC(=O)c1[nH]c2cc(Cl)ccc2c1CCCOc1cc(C)c(Cl)c(C)c1	–
116 nM	Cc1cc(OCCCc2c(C(=O)NS(=O)(=O)CCNC(=O)C(F)(F)F)[nH]c3cc(Cl)ccc23)cc(C)c1Cl	–
46 nM	Cc1cc(OCCCc2c(C(=O)NS(=O)(=O)CCNC(=O)[C@@H]3Cc4ccccc4N3)[nH]c3cc(Cl)ccc23)cc(C)c1Cl	–
